Ends that are not written are not given here.
Experiments:
[1] = tested on: UM-SCC47 cells
[2] = tested on: SCC6 HNSCC cell line; assay: Cell proliferation assay (CellTiter-GLO); assay type: cell-based, human; conditions: 4 days, up to 30 μmol/L, n = 4
Procedure: (§1) Cells (1–2 × 10^3/well) were plated in 96-well plates in complete culture medium in the presence or absence of the SSTNIGF1R peptide for 72–120 hours, or alternatively in the presence or absence of the SSTNIGF1R peptide or ASK inhibitor for 24 hours. Cell growth was measured against a standard curve using CellTiter-GLO, in accordance with the manufacturer's instructions.

[3] = tested on: UD-SCC2 HNSCC cell line; assay: Cell proliferation assay (CellTiter-GLO); assay type: cell-based, human; conditions: 4 days, up to 30 μmol/L, n = 4
Procedure: as §1

[4] = tested on: UM-SCC1 HNSCC cell line; assay: Cell proliferation assay (CellTiter-GLO); assay type: cell-based, human; conditions: 4 days, up to 30 μmol/L, n = 4
Procedure: as §1

[5] = tested on: SCC90 HNSCC cell line; assay: Cell proliferation assay (CellTiter-GLO); assay type: cell-based, human; conditions: 4 days, up to 30 μmol/L, n = 4
Procedure: as §1

[6] = tested on: HaCaT keratinocytes; assay: Cell proliferation assay (CellTiter-GLO); assay type: cell-based, human; conditions: 4 days, up to 30 μmol/L, n = 3
Procedure: as §1

[7] = tested on: TU-138 HNSCC cell line; assay: Cell proliferation assay (CellTiter-GLO); assay type: cell-based, human; conditions: 4 days, up to 30 μmol/L, n = 4
Procedure: as §1

[8] = tested on: normal HTE cells; assay: Cell proliferation assay (CellTiter-GLO); assay type: cell-based, human; conditions: 4 days, up to 30 μmol/L, n = 3
Procedure: as §1

[9] = tested on: NOKs (normal oral keratinocytes); assay: Cell proliferation assay (CellTiter-GLO); assay type: cell-based, human; conditions: NOK, 4 days, up to 30 μmol/L, n = 3
Procedure: as §1

[10] = tested on: SCC25 cells
[11] = tested on: UM-SCC47 cells; assay: Caspase assay (Caspase 3/7-GLO); assay type: cell-based, human; conditions: 24 hours, increasing concentrations of NQD1 up to 30 μmol/L
Procedure: (§2) The activation of stress/apoptosis markers was analyzed as described previously ([17]). Caspase activity was measured in cells in complete culture medium with SSTNIGF1R or ASK inhibitor for 24 hours using Caspase 3/7-GLO in accordance with the manufacturer's instructions.

[12] = target: T1, ITGAV and IGF1R pairing in UW-SCC22 PDX tumors (Homo sapiens, UniProt P08069); assay: PLA between IGF1R and ITGAV on tumor sections; assay type: in vivo, nude mice; conditions: 4 weeks
T1 construct: from tissue; host or cells: UW-SCC22 and UW-SCC64 PDX tumours, subcutaneous in nude mice
T1 sequence (P08069 31-736 limits assumed): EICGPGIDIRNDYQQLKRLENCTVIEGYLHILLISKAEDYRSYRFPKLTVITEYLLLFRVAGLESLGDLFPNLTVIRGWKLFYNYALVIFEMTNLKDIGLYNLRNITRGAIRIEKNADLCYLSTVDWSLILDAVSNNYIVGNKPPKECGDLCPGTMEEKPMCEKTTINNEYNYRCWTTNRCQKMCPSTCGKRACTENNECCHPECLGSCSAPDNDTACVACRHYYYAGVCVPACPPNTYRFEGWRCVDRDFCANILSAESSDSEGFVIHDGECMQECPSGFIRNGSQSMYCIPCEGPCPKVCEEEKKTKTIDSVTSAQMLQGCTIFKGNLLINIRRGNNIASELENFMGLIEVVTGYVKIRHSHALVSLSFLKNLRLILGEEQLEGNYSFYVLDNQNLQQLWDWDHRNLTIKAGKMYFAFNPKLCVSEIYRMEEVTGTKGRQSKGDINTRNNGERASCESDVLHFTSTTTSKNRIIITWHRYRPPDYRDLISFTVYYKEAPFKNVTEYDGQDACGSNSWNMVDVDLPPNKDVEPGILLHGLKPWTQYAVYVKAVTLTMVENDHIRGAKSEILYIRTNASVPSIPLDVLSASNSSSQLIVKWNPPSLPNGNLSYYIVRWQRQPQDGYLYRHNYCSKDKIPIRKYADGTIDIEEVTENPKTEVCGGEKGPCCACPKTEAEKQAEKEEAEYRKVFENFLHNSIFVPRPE
Procedure: (§3) Paraffin-embedded PDX sections, sections of deidentified archival tumors from patients with tonsil carcinoma, or TMAs assembled from patients with deidentified oropharyngeal (TMA-01, TMA-02) or adenoid cystic (TMA-03) carcinoma were deparaffinized and subjected to antigen retrieval by heating in 10 mmol/L sodium citrate (pH 6.0) with 0.05% Tween 20 until boiling and then maintained at 99°C for 20 minutes before cooling to room temperature. The sections were then used for receptor and PLA staining, as described above. Fluorescent images were acquired using either a Zeiss PlanAPOCHROMAT 20X objective (0.8 NA) or 40X (1.4 NA) and a Zeiss AxioCam Mrm CCD camera on a Zeiss Axio Imager.M2 microscopy system. CellProfiler 3.1.5 (Carpenter Lab, Broad Institute of Harvard and MIT) was used to quantify nuclei and PLA signals with threshold limits based on relevant comparative controls. Cell Profiler software analysis was checked by direct comparison with visual quantification of PLA dots or DAPI-stained nuclei in test images to accurately quantify PLA dots per cell and to exclude false or background fluorescence. The specificity of the antibodies used and the concentrations of PLA reagents used were optimized on test samples before use on experimental sections.

[13] = target: T2, ITGAV and IGF1R pairing in UW-SCC64 PDX tumors (Homo sapiens, UniProt P08069); assay: PLA between IGF1R and ITGAV on tumor sections; assay type: in vivo, nude mice; conditions: pump
T2 construct: from tissue; host or cells: UW-SCC22 and UW-SCC64 PDX tumours, subcutaneous in nude mice
T2 sequence (P08069 31-736 limits assumed): as above
Procedure: as §3

[14] = target: T3, IGF1R in UM-SCC47 cells (Homo sapiens, UniProt P08069); assay: IGF1R activation (pY1131) by immunoprecipitation and Western blot; assay type: cell-based; conditions: 3 hours, 100 ng/mL DES(1–3)IGF1, 30 μmol/L hSSTNIGF1R
T3 construct: constitutively active IGF1R is identified in UW-SCC47 cells by staining for pY1131; endogenous in cells; host or cells: UM-SCC47
T3 sequence (P08069 31-1367): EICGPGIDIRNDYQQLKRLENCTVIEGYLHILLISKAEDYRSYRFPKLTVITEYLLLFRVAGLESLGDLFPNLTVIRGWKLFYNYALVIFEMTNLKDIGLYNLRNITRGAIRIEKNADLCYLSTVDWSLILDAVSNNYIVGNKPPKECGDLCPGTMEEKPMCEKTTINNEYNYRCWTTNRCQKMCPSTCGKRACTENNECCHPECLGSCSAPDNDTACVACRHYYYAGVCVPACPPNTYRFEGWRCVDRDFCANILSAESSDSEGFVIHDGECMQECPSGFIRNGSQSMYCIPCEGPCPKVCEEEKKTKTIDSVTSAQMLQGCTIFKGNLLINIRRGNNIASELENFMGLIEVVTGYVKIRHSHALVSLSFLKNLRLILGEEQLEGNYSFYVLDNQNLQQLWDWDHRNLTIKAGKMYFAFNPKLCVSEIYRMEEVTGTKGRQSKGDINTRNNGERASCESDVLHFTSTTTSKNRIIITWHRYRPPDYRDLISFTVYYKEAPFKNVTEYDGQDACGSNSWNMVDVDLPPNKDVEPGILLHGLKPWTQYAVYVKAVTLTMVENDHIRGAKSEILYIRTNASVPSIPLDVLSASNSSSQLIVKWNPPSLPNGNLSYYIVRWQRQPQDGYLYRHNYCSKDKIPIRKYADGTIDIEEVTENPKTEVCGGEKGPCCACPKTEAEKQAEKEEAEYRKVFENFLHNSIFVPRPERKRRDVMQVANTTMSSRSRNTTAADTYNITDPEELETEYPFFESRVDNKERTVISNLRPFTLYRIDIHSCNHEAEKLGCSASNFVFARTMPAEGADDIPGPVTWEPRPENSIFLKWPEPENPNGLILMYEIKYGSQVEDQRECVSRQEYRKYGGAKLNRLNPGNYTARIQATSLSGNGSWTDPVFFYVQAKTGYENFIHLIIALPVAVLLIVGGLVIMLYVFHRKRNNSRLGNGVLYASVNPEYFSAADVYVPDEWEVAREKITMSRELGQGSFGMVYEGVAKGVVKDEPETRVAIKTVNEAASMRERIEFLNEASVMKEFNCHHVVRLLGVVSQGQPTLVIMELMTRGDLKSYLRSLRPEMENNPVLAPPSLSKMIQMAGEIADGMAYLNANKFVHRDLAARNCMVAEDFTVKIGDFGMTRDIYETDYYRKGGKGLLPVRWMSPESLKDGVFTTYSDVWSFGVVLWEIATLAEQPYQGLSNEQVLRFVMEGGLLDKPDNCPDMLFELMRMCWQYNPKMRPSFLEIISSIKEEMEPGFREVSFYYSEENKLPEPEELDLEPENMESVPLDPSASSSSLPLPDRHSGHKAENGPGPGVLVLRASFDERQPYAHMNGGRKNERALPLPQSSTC
Procedure: (§4) Immunoprecipitation of IGF1R with or without competing SSTN peptide was carried out as described previously ([18, 19]) using 0.5–1.0 mg of input/sample and lysis buffer supplemented with HALT protease and phosphatase inhibitor cocktail (Thermo Fisher Scientific).

[15] = target: T4, IGF1R in HaCat cells (Homo sapiens, UniProt P08069); assay: as above; assay type: cell-based; conditions: 3 hours, 100 ng/mL DES(1–3)IGF1, 30 μmol/L hSSTNIGF1R
T4 construct: endogenous in cells; host or cells: HaCat
T4 sequence (P08069 31-1367): as above
Procedure: as §4

[16] = tested on: ASK-1 in UW-SCC64 PDX tumors; assay: pT845-ASK1 staining of tumor sections; assay type: in vivo, nude mice; conditions: as early as the 3-day timepoint
Procedure: as §3

[17] = tested on: ASK-1 in UW-SCC22 PDX tumors; assay: pT845-ASK1 staining of tumor sections; assay type: in vivo, nude mice; conditions: UW-SCC22 tumors treated by injection or pump for 4 weeks
Procedure: as §3

[18] = tested on: Sdc1, IGF1R, ITGAV cell surface expression in UM-SCC47 cells; assay: Immunofluorescent receptor staining of cultured cells; assay type: cell-based, human; conditions: UM-SCC47 cells pretreated 6 hours with 30 μmol/L, compared with vehicle alone
Procedure: (§5) UM-SCC47 cells treated with or without the SSTNIGF1R peptide for 6 hours were fixed in 4% paraformaldehyde, permeabilized in 0.5% Triton X-100 in 1× CMF-PBS (pH 7.4), and blocked for 1 hour at room temperature in a 3% BSA/CMF-PBS solution. Cells were stained with 1 μg/mL anti-Sdc1 polyclonal antibody, 2 μg/mL ITGAV antibody (NBP1-85746), or 4 μg/mL antibody to IGF1R (AF-305-NA) for 1 hour at room temperature, followed by incubation with 4 μg/mL Alexa488-conjugated secondary antibodies for 1 hour at room temperature. The nuclei were stained with 3 μmol/L DAPI (Molecular Probes) in 1× CMF-PBS (pH 7.4) for 10 minutes. For PLA, antibodies against ITGAV and IGF1R were used as described previously, followed by staining with PLA reagents according to the manufacturer's instructions.

[19] = Serum peptide analysis by mass spectrometry; conditions: mouse, in vivo, sc, mice, following sacrifice, 4.3 mg/kg/day by twice weekly subcutaneous injection, triplicate, read-out: steady-state concentration in plasma
Procedure: (§6) SSTNIGF1R levels in the serum of treated animals were measured in triplicate using an AB Sciex QTrap 5500 mass spectrometry system at the UW School of Pharmacy and quantified by comparison with a standard curve of peptide in mouse serum. IGF1 levels in the serum of animals bearing UW-SCC22 or UW-SCC64 tumors were measured using an ELISA kit from Thermo Fisher Scientific (EMIGF1) and compared with a mouse IGF1 standard according to the manufacturer's instructions.

[20] = target: T5, IGF1R and ITGAV pairing (Sdc1:IGF1R:ITGAV receptor complex) in UM-SCC47 cells (Homo sapiens, UniProt P08069); assay: Proximity ligation assay ITGAV:IGF1R in cultured cells; assay type: cell-based; conditions: UM-SCC47 cells pretreated for 6 hours with 30 μmol/L; 15 images over three experiments
T5 construct: endogenous in cells; host or cells: UM-SCC47
T5 sequence (P08069 31-736 limits assumed, one chain of several): as the sequence (P08069 31-736 limits assumed) above
Procedure: as §5

[21] = Serum IGF1 ELISA; assay type: in vivo, mice; conditions: for IGF1 (ng/mL) ± SD: hSSTNIGF1R delivered by Alzet pumps, ELISA, n = 6
Procedure: as §6

[22] = tested on: UW-SCC22 HNSCC PDX; assay: PDX tumor growth in nude mice; assay type: in vivo; conditions: 4 weeks; for reduction of tumor growth compared with controls: P < 0.001
Source text: (§7) Animal studies were approved by the University of Wisconsin–Madison Institutional Animal Care and Use Committee in accordance with the NIH guidelines. UW-SCC22 or UW-SCC64 PDXs derived from head and neck tumors ([31, 32]) were provided by Wisconsin Head and Neck Cancer SPORE (https://hn-spore.wisc.edu). Minced tissue isolated from host mice was subcutaneously injected into both flanks of 6–8 weeks old female, athymic Foxn1^nu outbred nude mice (Harlan Laboratories). After 1 week, animals were randomized and surgically implanted with Alzet (Durect Corp.) osmotic pumps (Model 2004) delivering 0.25 μL/hour of either PBS or PBS containing 4 mmol/L hSSTNIGF1R for 4 weeks. Animals were humanely sacrificed, bled, and tumors were removed and fixed in 4% paraformaldehyde before paraffin embedding and sectioning.

[23] = tested on: UW-SCC64 PDX; assay: PDX tumor growth in nude mice; assay type: in vivo; conditions: peptide delivered by the pump only, P < 0.001
Source text: as §7

[24] = allows use as a therapeutic agent in vivo; cited from earlier work
[25] = tested on: ASK1 (pT845), pp38MAPK, pJNK in UM-SCC47 cells; assay: Temporal activation of ASK1, p38MAPK and JNK; assay type: cell-based, human; conditions: 30 minutes after treatment with 30 μmol/L hSSTNIGF1R
[26] = tested on: HTE; assay: Stress and apoptosis marker antibody array; assay type: cell-based, human; conditions: 16 hours, 30 μmol/L (mSSTNIGF1R per Fig. 4B)
Procedure: as §2

[27] = tested on: HaCaT keratinocyte; assay: Stress and apoptosis marker antibody array; assay type: cell-based, human; conditions: 16 hours, 30 μmol/L (mSSTNIGF1R per Fig. 4B)
Procedure: as §2

[28] = tested on: SCC25 cells; assay: Stress and apoptosis marker antibody array; assay type: cell-based, human; conditions: SCC25 lysates; 16 hours, 30 μmol/L (mSSTNIGF1R per Fig. 4B); compared with vehicle
Procedure: as §2

[29] = tested on: NOK; assay: Stress and apoptosis marker antibody array; assay type: cell-based, human; conditions: 16 hours, 30 μmol/L (mSSTNIGF1R per Fig. 4B)
Procedure: as §2

[30] = tested on: UM-SCC47 cells; assay: Stress and apoptosis marker antibody array; assay type: cell-based, human; conditions: UM-SCC47 lysates; 16 hours, 30 μmol/L (mSSTNIGF1R per Fig. 4B); compared with vehicle
Procedure: as §2

LPAGEKPEEGEPVLHVEAEPGFTARDKE [active mSSTNIGF1R]
IC50 [1]: 1 to 10 µM | cell growth [2]: reduced growth | cell growth [3]: reduced growth | cell growth [4]: reduced growth | cell growth [5]: reduced growth | cell growth [6]: unaffected | cell growth [7]: reduced growth | cell growth [8]: unaffected | cell growth [9]: unaffected | IC50 [10]: 1 to 10 µM

CCOC(=O)c1c2c3c(cccc3[nH]c1=O)C(=O)c1ccccc1-2 [NQD1, NQDI-1]
restoration of cell growth in the SSTN-treated cells ([1]; UM-SCC47, 24 hours, NQD1 up to 30 μmol/L with 30 μmol/L SSTNIGF1R, CellTiter-GLO): 80% | caspase 3 activation induced by 30 μmol/L SSTNIGF1R [11]: gradually reduce

STSTLPAGEGPKEGEAVVLPEVEPGLTAREQE [hSSTNIGF1R]
reduction of ITGAV and IGF1R pairing (PLA) ([12]; plasma concentration 13 μmol/L (injection), versus saline-treated tumors): 90% | ITGAV and IGF1R pairing (PLA) ([12]; plasma concentration 32 μmol/L, pump-mediated delivery): reduced to nearly undetectable levels | reduction of ITGAV and IGF1R pairing (PLA) ([13]; UW-SCC64 tumors after 3-day treatment): 80% | ITGAV and IGF1R pairing (PLA) ([13]; UW-SCC64 tumors, 5-week treatment): essentially abolished | IGF1-mediated activation of IGF1R (pY1131) [14]: blocked | IGF1-mediated activation of IGF1R (pY1131) [15]: unaffected | pT845-ASK1 staining [16]: pT845 staining indicative of ASK-1 activation | pT845-ASK-1 staining [17]: Positive staining | cell surface expression of Sdc1, IGF1R, ITGAV [18]: no change | level at time molar [19]: 13 µM | PLA signal, colocalization of IGF1R and ITGAV [20]: signal is lost | serum levels of IGF1 ([21]; animals bearing UW-SCC22 tumors): no change | serum levels of IGF1 ([21]; animals bearing UW-SCC64 tumors): no change | IGF1 (ng/mL) ± SD ([21]; serum of mice bearing UW-SCC22, saline control 34.8 ± 1.0): 34.6 ± 0.9 ng/mL | IGF1 (ng/mL) ± SD ([21]; serum of mice bearing UW-SCC64, saline control 34.0 ± 0.9): 33.7 ± 1.1 ng/mL | reduction of tumor growth compared with controls ([22]; 4.3 mg/kg/day, Alzet pump): approximately 94% | tumor size after treatment ([22]; 4.3 mg/kg/day, constant infusion via Alzet pump, start 102 ± 21 mm^3, saline 2,767 ± 631 mm^3): 270 ± 49 mm^3 | tumor size after treatment ([22]; 4.3 mg/kg/day, twice weekly subcutaneous injection): 664 ± 138 mm^3 | reduction of tumor growth compared with controls ([22]; twice weekly subcutaneous injection): 79% | reduction of tumor growth compared with saline-treated controls [23]: 85% | half-life [24]: ~24 h | active ASK1 (pT845), pp38MAPK, and pJNK [25]: increased | change in apoptotic markers (antibody array) [26]: little or no response | change in apoptotic markers (antibody array) [27]: little or no response | change in apoptotic markers (antibody array) [28]: significant increases in activated caspase 3 and PARP, and reduced levels of survivin and phosphorylated Erk, Akt, and Bad | change in apoptotic markers (antibody array) [29]: little or no response | change in apoptotic markers (antibody array) [30]: significant increases in activated caspase 3 and PARP, and reduced levels of survivin and phosphorylated Erk, Akt, and Bad

inactive mSSTNIGF1R: Inactive control peptide, amino acids 94–119 of mouse Sdc1 (AGEKPEEGEPVLHVEAEPGFTARDKE; UniProt P18828 94-119, looked up, fragment) [reference compound]
effect on cell numbers ([1]; UM-SCC47, up to 6 days, concentration range, CellTiter-GLO): no effect | effect on cell numbers ([10]; SCC25, up to 6 days, concentration range, CellTiter-GLO): no effect
